Measured values: ChEMBL document CHEMBL1140784, “Leishmanicidal and trypanocidal activities of 2-aminocyclohexanol and 1,2-cyclohexanediamine derivatives” (Bioorg Med Chem Lett, 2008)

Columns and labels:
Leishmania donovani = experiment: Antileishmanial activity against Leishmania donovani MHOM/BR/74/PP75 promastigotes after 72 hrs; conditions: MHOM/BR/74/PP75, 72 h
Leishmania amazonensis = experiment: Antileishmanial activity against Leishmania amazonensis IFLA/BR/67 promastigotes at pH 8.0 after 72 hrs; assay type: functional, organism-based
Leishmania braziliensis = experiment: Antileishmanial activity against Leishmania braziliensis MHOM/BR/75/M2903 promastigotes after 72 hrs; assay type: functional, organism-based; conditions: MHOM/BR/75/M2903, 72 h
Trypanosoma cruzi = experiment: Antitrypanosomal activity against Trypanosoma cruzi Tulahuen epimastigotes after 72 hrs; assay type: functional, organism-based

Structure (SMILES)	IC50 (Leishmania donovani) [µM]	IC50 (Leishmania amazonensis) [µM]	IC50 (Leishmania braziliensis) [µM]	IC50 (Trypanosoma cruzi) [µM]
CCCCCCCCCCCCC/C=C1/CCC[C@@H](NCCCC)[C@@H]1OC(C)=O	9.6	7.3	7.3	1.2
CCCCCCCCCCCCC/C=C1/CCC[C@@H](NCc2ccccc2)[C@@H]1NCCCCCC	13	15.5	10.8	98
CCCCCCCCCCCCC/C=C1/CCC[C@H](O)[C@H]1OC(C)=O	13.3	11.6	13.3	8.8
CCCCCCCCCCCCC/C=C1/CCC[C@H](OCc2ccccc2)[C@H]1N(CC)CC	157	157	148	106
CCCCCCCCCCCCC/C=C1/CCC[C@@H]2[C@H]1N2Cc1ccccc1 (stereo partly specified)	19.9	16.2	16.2	31
CCCCCCCCCCCCC/C=C1/CCC[C@@H]2[C@H]1N2CCCCCC (stereo partly specified)	1.8	2.4	2.4	51
CCCCCCCCCCCCCC[C@@H]1CCC[C@H](O)[C@H]1N (relative stereo)	0.29	0.26	0.29	0.19

Now from value to compound:

IC50 (Leishmania donovani) [µM]	IC50 (Leishmania amazonensis) [µM]	IC50 (Leishmania braziliensis) [µM]	IC50 (Trypanosoma cruzi) [µM]	Structure (SMILES)
8.6	9.1	8.8	8.6	CCCCCCCCCCCCC/C=C1/CCC[C@H](NCCCC)[C@H]1OC(C)=O
17.4	14	14	116	CCCCCCCCCCCCC/C=C1/CCC[C@@H](NCCCC)[C@@H]1NCCCCCC
1.1	1.1	1.1	0.14	CCCCCCCCCCCCC/C=C1/CCC[C@H](O)[C@H]1NCCN (relative stereo)
	0.2	0.2		C[C@@H]1[C@H](O)[C@@H](C)/C=C/C=C/C=C/C=C/C=C/C=C/C=C/[C@H](O[C@@H]2O[C@H](C)[C@@H](O)[C@H](N)[C@@H]2O)C[C@@H]2O[C@](O)(C[C@@H](O)C[C@@H](O)[C@H](O)CC[C@@H](O)C[C@@H](O)CC(=O)O[C@H]1C)C[C@H](O)[C@H]2C(=O)O (stereo in doubt) [AMPHOTERICIN B]
			74	O=C(Cn1ccnc1[N+](=O)[O-])NCc1ccccc1 [BENZNIDAZOLE]
29.4	29.4	29.4		N=C(N)c1ccc(OCCCCCOc2ccc(C(=N)N)cc2)cc1 [PENTAMIDINE]
